Data: US4563471A, “4-Oxothiazolidin-2-ylidene-acetamide derivatives as CNS agents” (Warner-Lambert Company, priority 1983, dated 1986)
Like-named read-outs stand apart in the source and are kept apart here.

Key:
[1] = tested on: male mice (NMRI); assay: Electroshock; assay type: in vivo, mouse
Experimental: (§1) In the case of all substances, there was used in the cramp test as vehicle 0.8% Methocel mucilage. The premedication time amounted to 30 minutes, insofar as nothing else is stated, and the administration took place i.g. in 20 ml/kg body weight.
(§2) Experimental animals were male mice (NMRI) with a body weight of 18 to 24 g., which were kept under controlled conditions. Twenty-four hours (if not stated otherwise) before commencement of the experiment, the feed was withdrawn but, up to the commencement of the experiment, the drinking water was left.
(§3) Per dosage, in each case ten animals were subjected to the test.
3. […] For the transmission of the current impact, electrodes in the form of ear clips were fixed to the ears of the mouse. The period of the shock amounted to 0.3 s., the current strength to 35 mA (voltage self-regulating).

[2] = tested on: male mice (NMRI); assay: Pentetrazole cramp; assay type: in vivo, mouse; settings: po, 20 min; for ED50: read-out: ED50 pentetrazole cramp
Experimental: as §1, §2, §3

[3] = tested on: male mice (NMRI); assay: Semicarbazide cramp; assay type: in vivo, mouse; settings: po, 1.5 h; for ED50: read-out: ED50 semicarbazide cramp
Experimental: as §1, §2, §3
7. Semicarbazide cramp--Semicarbazide hydrochloride was used as cramp agent in a dosage of 1000 mg/kg s.c. The observation time amounted in each case to 90 minutes p.a.

[4] = tested on: male mice (NMRI); assay: Picrotoxin cramp; assay type: in vivo, mouse; settings: for ED50: Mus musculus, po, 20 min, read-out: ED50 picrotoxin cramp; for ED50 picrotoxin cramp: i.g., male mouse, picrotoxin 15 mg/kg s.c., observation 20 min
Experimental: as §1, §2, §3

[5] = tested on: male mice (NMRI); assay: Strychnine cramp; assay type: in vivo, mouse; settings: for ED50: Mus musculus, po, 20 min, read-out: ED50 strychnine cramp; for ED50 strychnine cramp: i.g., male mouse, strychnine 1.1 mg/kg s.c., observation 20 min
Experimental: as §1, §2, §3
2. Strychnine cramp--As convulsive, there was used strychnine nitric cryst in a dosage of 1.1 mg/kg s.c., whereby the observation time amount to 20 minutes p.a.

[6] = tested on: male mice (NMRI); assay: 3-Mercaptopropionic acid cramp (3-MPA); assay type: in vivo, mouse; settings: po, 0.5 h, read-out: ED50 3-MPA cramp
Experimental: as §1, §2, §3
8. 3-Mercaptopropionic acid--3-Mercaptopropionic acid was diluted with physiological NaCl solution, adjusted with 6 mol/l NaOH to PH 7 and brought with NaCl solution to the end volume (10 ml/kg). The observation time amounted to 30 minutes.

[7] = tested on: male mice (NMRI); assay: Isoniazide cramp; assay type: in vivo, mouse; settings: po, 1.5 h, read-out: ED50 isoniazide cramp
Experimental: as §1, §2, §3

[8] = tested on: male mice (NMRI); assay: Bicuculline cramp; assay type: in vivo; settings: po, 20 min; i.g., male mouse; bicuculline 3.0 mg/kg s.c.; observation 20 min
Experimental: as §1, §2, §3
(§4) As positive standard, there were used phenytoin, valproate, GABA and baclofen.
6. Bicuculline cramp--Cramp agent was bicuculline purum. The dosage amounted to 3.0 mg/kg s.c. The observation time amount to 20 minutes.

[9] = tested on: DBA/2j mice; assay: Audiogenic cramps; assay type: in vivo, mouse; settings: po, 1 min, read-out: ED50 audiogenic cramp
Experimental: as §1
(§5) In the case of the audiogenic cramps, DBA/2j mice of male sex were used in a weight of 5-10 g which, on the day before the experiment, were removed and not fasted.
as §3
9. […] The observation time amount to one minute.

[10] = in vivo; settings: mouse, po
Experimental: The determination of the acute toxicity was carried out on male mice (NMRI) with a body weight of 18-23 g. All experimental animals were fasted for 20 hours before commencement of the experiment. Water was available ad libitum. To each dosage group there belonged four animals. The dosage sequence was logarithmic. The test substances were administered intragastrally as suspension in 0.88% Methocel. The volume of administration amounted to 20 ml/kg.

[11] = tested on: mice; assay: Comparative investigations of the anticonvulsive action in cramp models 1-9 (overall); assay type: in vivo; settings: all cramp models, i.g., male mouse
Experimental: as §1, §2, §5, §3, §4

[12] = po, 5 min, i.g., male mouse, 35 mA, 0.3 s, observation 5 min, read-out: ED50 electroshock
[13] = i.g., male mouse, pentetrazole 140 mg/kg s.c., observation 20 min
[14] = i.g., male mouse, semicarbazide hydrochloride 1000 mg/kg s.c., observation 90 min
[15] = i.g., male mouse, 3-mercaptopropionic acid, observation 30 min
[16] = i.g., male mouse, isoniazide 250 mg/kg s.c., observation 90 min
[17] = i.g., male DBA/2j mouse, 10.9 KHz sound of 110 dBA, 30 s, observation 1 min

Question: For `Cc1cccc(C)c1NC(=O)/C=C1\SCC(=O)N1C` [2 (a), (Z)-(3-Methyl-4-oxothiazolidin-2-ylidene)-N-(2,6-dimethylphenyl)-acetamide], which ED50 [1, 12] is on record?
Answer: The ED50 was 13.6 mg/kg.

Question: What about the ED50 [2, 13] of the same compound?
Answer: Its ED50 is 19.9 mg/kg.

Question: And the ED50 [3, 14]?
Answer: The ED50 was 14.1 mg/kg.

Question: What about the ED50 [4] of the same compound?
Answer: The ED50 was 11.3 mg/kg.

Question: And the ED50 [5]?
Answer: The ED50 was 14.9 mg/kg.

Question: And the ED50 [6, 15]?
Answer: Its ED50 is 8.7 mg/kg.

Question: And the ED50 [7, 16]?
Answer: The ED50 was 5.32 mg/kg.

Question: And the ED50 [8]?
Answer: The ED50 was 2.68 mg/kg.

Question: What about the ED50 [9, 17] of the same compound?
Answer: The ED50 was 2.9 mg/kg.

Question: And the LD50 at 168 h [10]?
Answer: The LD50 at 168 h was 1980 mg/kg.

Question: And the selectivity ratio [10]?
Answer: Its selectivity ratio is 99.8 to 739.

Question: Which ED50 [1, 12] does the source give for `Cc1cccc(Cl)c1NC(=O)/C=C1\SCC(=O)N1C` [2 (i), (Z)-(3-methyl-4-oxothiazolidin-2-ylidene)-N-(2-chloro-6-methylphenyl)-acetamide] here?
Answer: The ED50 was 6.47 mg/kg.

Question: And the ED50 [2, 13]?
Answer: The ED50 was 1.9 mg/kg.

Question: And the ED50 [3, 14]?
Answer: Its ED50 is 1.59 mg/kg.

Question: And the ED50 [4]?
Answer: Its ED50 is 2.34 mg/kg.

Question: What about the ED50 [5] of the same compound?
Answer: Its ED50 is 5.09 mg/kg.

Question: What about the ED50 [6, 15] of the same compound?
Answer: The ED50 was 1.29 mg/kg.

Question: What about the ED50 [7, 16] of the same compound?
Answer: Its ED50 is 1.24 mg/kg.

Question: And the ED50 [8]?
Answer: The ED50 was 0.9 mg/kg.

Question: And the ED50 [9, 17]?
Answer: Its ED50 is 3 mg/kg.

Question: And the LD50 at 168 h [10]?
Answer: Its LD50 at 168 h is > 1600 mg/kg.

Question: What about the selectivity ratio [10] of the same compound?
Answer: Its selectivity ratio is 243 to 1780.

Question: With `CN1C(=O)CS/C1=C\C(=O)Nc1c(Cl)cccc1Cl` [2 (j), (Z)-(3-methyl-4-oxothiazolidin-2-ylidene)-N-(2,6-dichlorophenyl)-acetamide] as the compound, how does the ED50 [1, 12] read?
Answer: The ED50 was 4.03 mg/kg.

Question: What about the ED50 [2, 13] of the same compound?
Answer: Its ED50 is 1.8 mg/kg.

Question: And the ED50 [3, 14]?
Answer: The ED50 was 3.41 mg/kg.

Question: What about the ED50 [4] of the same compound?
Answer: The ED50 was 1.52 mg/kg.

Question: And the ED50 [5]?
Answer: The ED50 was 5.68 mg/kg.

Question: And the ED50 [6, 15]?
Answer: Its ED50 is 1.73 mg/kg.

Question: What about the ED50 [7, 16] of the same compound?
Answer: The ED50 was 5 mg/kg.

Question: And the ED50 [8]?
Answer: The ED50 was 0.8 mg/kg.

Question: What about the ED50 [9, 17] of the same compound?
Answer: Its ED50 is 2 mg/kg.

Question: What about the LD50 at 168 h [10] of the same compound?
Answer: The LD50 at 168 h was 1600 mg/kg.

Question: What about the selectivity ratio [10] of the same compound?
Answer: Its selectivity ratio is 282 to 2000.

Question: Which results are given for `NCCCC(=O)O` [GABA]?
Answer: ED50 electroshock ([1]; i.g., male mouse, 35 mA, 0.3 s, observation 5 min): inactive; ED50 [2, 13]: 500 mg/kg; ED50 [3, 14]: 60 mg/kg; ED50 picrotoxin cramp [4]: inactive; ED50 strychnine cramp [5]: inactive

Question: What does the source list for `NCC(CC(=O)O)c1ccc(Cl)cc1` (centres unmarked) [baclofen]?
Answer: ED50 ([1]; Mus musculus, po, 5 min, read-out: ED50 electroshock): 20 mg/kg; ED50 ([2]; Mus musculus): 100 mg/kg; ED50 ([3]; Mus musculus): 4 mg/kg; ED50 [4]: 30 mg/kg; ED50 [5]: 8.5 mg/kg; ED50 ([6]; Mus musculus): 20 mg/kg; ED50 ([7]; Mus musculus): 2 mg/kg; ED50 [8]: 20 mg/kg; ED50 ([9]; Mus musculus): 5 mg/kg; LD50 at 168 h [10]: 200 mg/kg; selectivity ratio [10]: 2 to 100; Side effects [11]: Side effects in all models

Question: Which results are given for `O=C1NC(=O)C(c2ccccc2)(c2ccccc2)N1` [phenytoin]?
Answer: ED50 ([1]; Mus musculus, iv, 5 min, read-out: ED50 electroshock (i.v.)): 12.5 mg/kg; ED100 ([1]; po, 5 min, ED 100, i.g., male mouse): 50 mg/kg; ED100 ([2]; ED 100, i.g., male mouse): 50 mg/kg; ED90 ([3]; ED 90, i.g., male mouse): 50 mg/kg; ED50 [4]: 200 mg/kg; ED50 strychnine cramp [5]: inactive; ED50 [7, 16]: 38 mg/kg; ED50 [8]: 12.5 mg/kg; ED50 [9, 17]: 2.3 mg/kg

Question: What does the source list for `CCCC(CCC)C(=O)O` [valproate]?
Answer: ED40 ([1]; Mus musculus, po, 5 min, read-out: ED 40 electroshock): 200 mg/kg; ED50 ([2]; Mus musculus): ~250 mg/kg; ED50 ([3]; Mus musculus): 100 mg/kg; ED50 picrotoxin cramp [4]: inactive; ED50 strychnine cramp [5]: inactive; ED50 ([6]; Mus musculus): 154 mg/kg; ED50 ([7]; Mus musculus): 135 mg/kg; LD50 at 168 h [10]: 2000 mg/kg; selectivity ratio [10]: 8 to 14.8
